According to patent US11377438B2, “2-amino-n-heteroaryl-nicotinamides as Nav1.8 inhibitors” (Merck Sharp & Dohme Corp., priority 2018, dated 2022):

Biological target: human Nav1.8 (Homo sapiens (Human), UniProt Q9Y5Y9)
Assay: Nav1.8 Qube automated patch-clamp assay
Assay type: cell-based
Details: human Nav1.8 stably expressed in HEK 293 cells, whole-cell voltage clamp, room temperature; read-out: IC50 (nM) in the Nav 1.8 Qube Assay
Procedure: Qube® Assay Experimental Procedure Compounds were tested on human Nav1.8 and Nav1.5 channels stably expressed in human embryo kidney (HEK) 293 cells. Sodium current measurements on Qube® were conducted as follows: automated 384-well patch-clamp assays on the Qube® platform (Sophion Biosciences) were used to measure the inhibition of sodium flow through human Nav1.8 and Nav1.5 channels. Whole-cell voltage-clamp recordings were performed in QChips® (Sophion Biosciences) at room temperature. Nav1.8 current measurements on Qube® were obtained as follows: Nav1.8 currents were elicited with a 10 second 1 Hertz (Hz) pulse train from a holding potential of −90 millivolts (mV), delivered to the cells once per minute in the control condition (DMSO only) and after compound addition. The 1 hertz pulse train stimulation consisted often test pulses to 10 millivolt (mV) for 20 milliseconds (ms), each of which was followed by a 980 millisecond repolarization to −67 millivolts. At the end of the 10 second pulse train stimulation, a 5 second hyperpolarization step to −100 millivolt (mV) was used to recover Nav1.8 from fast inactivation. The peak currents elicited by the 1st and 10th test pulses were used to determine IC50 values for resting inhibition and inactivated state inhibition. Nav1.5 current measurements on Qube® were obtained as follows: Nav1.5 currents were elicited with a 20 second 3 Hertz pulse train in the control condition (DMSO only) and after compound addition. The pulse train consisted of sixty 20 millisecond test pulses to 0 millivolt from a holding potential of −80 millivolt (mV). The average peak currents elicited by the last 3 test pulses were used to determine IC50 values for Nav1.5 inhibition.
The following buffers were used for the Qube® recordings: External buffer for Nav1.8 Qube® recording: 150 NaCl, 2 CaCl2, 5 KCl, 1 Mg Cl2, 10 HEPES, 12 Dextrose; External buffer for Qube® Nav1.5 recording: 120 N-Methyl-D-Glucamine, 40 NaCl, 1 KCl, 2.7 CaCl2), 5 HEPES, 0.5 MgCl2; and Internal buffer for Qube® recording: 120 CsF, 30 CsCl, 10 EGTA, 5 HEPES, 5 NaF, 2 MgCl2.
For all Qube® experiments offline analysis was used to determine percent inhibition as a function of drug concentration. IC50 values were determined by fitting to the Hill equation.

Sequence of human Nav1.8 (Q9Y5Y9 whole entry): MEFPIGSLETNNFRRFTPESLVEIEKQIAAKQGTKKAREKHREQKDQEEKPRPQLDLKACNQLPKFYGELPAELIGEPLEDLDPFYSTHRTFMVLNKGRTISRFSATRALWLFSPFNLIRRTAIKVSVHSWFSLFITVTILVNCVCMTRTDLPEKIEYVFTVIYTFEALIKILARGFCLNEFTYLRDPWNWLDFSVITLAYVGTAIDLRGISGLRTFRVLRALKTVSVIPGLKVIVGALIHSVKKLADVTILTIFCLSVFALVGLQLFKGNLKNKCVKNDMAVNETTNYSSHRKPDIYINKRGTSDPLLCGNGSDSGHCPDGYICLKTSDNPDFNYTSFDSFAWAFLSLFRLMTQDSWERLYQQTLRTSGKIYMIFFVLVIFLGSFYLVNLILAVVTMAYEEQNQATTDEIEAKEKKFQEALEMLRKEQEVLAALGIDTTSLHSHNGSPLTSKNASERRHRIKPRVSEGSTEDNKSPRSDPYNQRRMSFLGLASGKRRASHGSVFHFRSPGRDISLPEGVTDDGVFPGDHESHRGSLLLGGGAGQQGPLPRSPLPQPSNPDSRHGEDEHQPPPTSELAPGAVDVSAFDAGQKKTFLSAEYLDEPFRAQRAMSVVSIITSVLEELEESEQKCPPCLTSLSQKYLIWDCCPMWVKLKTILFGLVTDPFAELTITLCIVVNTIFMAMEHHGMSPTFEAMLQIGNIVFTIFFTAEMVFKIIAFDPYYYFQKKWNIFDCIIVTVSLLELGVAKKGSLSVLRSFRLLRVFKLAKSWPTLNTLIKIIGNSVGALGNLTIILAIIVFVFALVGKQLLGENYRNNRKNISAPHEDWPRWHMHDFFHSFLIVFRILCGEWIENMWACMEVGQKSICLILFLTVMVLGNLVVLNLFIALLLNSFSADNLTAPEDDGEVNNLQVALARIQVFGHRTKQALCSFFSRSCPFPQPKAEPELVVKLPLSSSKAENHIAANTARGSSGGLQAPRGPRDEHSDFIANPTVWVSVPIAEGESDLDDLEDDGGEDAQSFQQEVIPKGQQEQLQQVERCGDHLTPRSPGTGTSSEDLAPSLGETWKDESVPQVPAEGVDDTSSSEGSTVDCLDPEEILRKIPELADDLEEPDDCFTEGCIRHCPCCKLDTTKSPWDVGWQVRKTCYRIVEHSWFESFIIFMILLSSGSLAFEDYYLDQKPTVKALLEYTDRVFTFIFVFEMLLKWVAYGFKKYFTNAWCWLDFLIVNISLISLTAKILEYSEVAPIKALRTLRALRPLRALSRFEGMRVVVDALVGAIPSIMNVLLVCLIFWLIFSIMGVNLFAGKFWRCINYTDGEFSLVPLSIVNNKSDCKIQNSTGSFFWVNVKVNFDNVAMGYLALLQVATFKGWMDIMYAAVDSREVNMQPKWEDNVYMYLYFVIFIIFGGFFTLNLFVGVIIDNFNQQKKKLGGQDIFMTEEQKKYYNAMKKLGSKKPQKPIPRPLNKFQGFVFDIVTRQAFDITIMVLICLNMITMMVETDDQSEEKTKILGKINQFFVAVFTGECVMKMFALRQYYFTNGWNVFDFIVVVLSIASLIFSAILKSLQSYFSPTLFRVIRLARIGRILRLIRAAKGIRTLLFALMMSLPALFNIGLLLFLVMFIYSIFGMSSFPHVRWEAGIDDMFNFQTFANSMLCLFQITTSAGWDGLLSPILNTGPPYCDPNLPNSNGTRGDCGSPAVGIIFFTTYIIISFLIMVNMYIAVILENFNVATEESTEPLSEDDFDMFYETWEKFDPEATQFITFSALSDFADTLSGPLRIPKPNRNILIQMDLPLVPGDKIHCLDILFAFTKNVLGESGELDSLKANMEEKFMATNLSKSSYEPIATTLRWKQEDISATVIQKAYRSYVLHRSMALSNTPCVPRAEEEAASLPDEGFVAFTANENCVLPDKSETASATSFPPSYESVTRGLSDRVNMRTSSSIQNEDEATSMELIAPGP

| Compound | IC50 [nM] |
| --- | --- |
| CC[C@@H]1CN(c2ncc(C(F)(F)F)cc2C(=O)Nc2ccnc(S(N)(=O)=O)c2)C[C@@H](C(F)(F)F)O1 (single isomer, unassigned) [Example 133, 2-((2R,6S or 2S,6R)-2-ethyl-6-(trifluoromethyl)morpholino)-N-(2-sulfamoylpyridin-4-yl)-5-(trifluoromethyl)nicotinamide] | 12 |
| CC[C@H]1CN(c2ncc(C(F)(F)F)cc2C(=O)Nc2ccnc(S(N)(=O)=O)c2)C[C@H](C(F)(F)F)O1 (single isomer, unassigned) [Example 134, 2-((2S,6R or 2R,6S)-2-ethyl-6-(trifluoromethyl)morpholino)-N-(2-sulfamoylpyridin-4-yl)-5-(trifluoromethyl)nicotinamide] | 155 |
| NS(=O)(=O)c1cc(NC(=O)c2cc(C(F)(F)F)cnc2N2CCCC(F)(F)CC2)ccn1 [Example 13, 2-(4,4-difluoroazepan-1-yl)-N-(2-sulfamoylpyridin-4-yl)-5-(trifluoromethyl)nicotinamide] | 4.1 |
| Cc1nc(N2CCC(F)(F)CC2)c(C(=O)Nc2ccnc(S(N)(=O)=O)c2)cc1C#CC1CC1 [Example 16, 5-(cyclopropylethynyl)-2-(4,4-difluoropiperidin-1-yl)-6-methyl-N-(2-sulfamoylpyridin-4-yl)nicotinamide] | 12 |
| Cc1ccc(C(=O)Nc2ccnc(S(N)(=O)=O)c2)c(N2CCCC(F)(F)CC2)n1 [Example 17, 2-(4,4-difluoroazepan-1-yl)-6-methyl-N-(2-sulfamoylpyridin-4-yl)nicotinamide] | 3.1 |
| O=C(Nc1cnn(S(=O)(=O)C2CC2)c1)c1cc(C(F)(F)F)cnc1N1CCCC(F)(F)CC1 [Example 36, N-[1-(cyclopropylsulfonyl)-1H-pyrazol-4-yl]-2-(4,4-difluoroazepan-1-yl)-5-(trifluoromethyl)pyridine-3-carboxamide] | 147 |
| NS(=O)(=O)c1cc(NC(=O)c2cc(CC3CC3)cnc2N2CCCC(F)(F)CC2)ccn1 [Example 46, 5-(cyclopropylmethyl)-2-(4,4-difluoroazepan-1-yl)-N-(2-sulfamoylpyridin-4-yl)nicotinamide] | 1 |
| NS(=O)(=O)c1cc(NC(=O)c2ccc(C(F)(F)F)nc2N2CCCC(F)(F)CC2)ccn1 [Example 132, 2-(4,4-difluoroazepan-1-yl)-N-(2-sulfamoylpyridin-4-yl)-6-(trifluoromethyl)nicotinamide] | 5.3 |
| NS(=O)(=O)c1cc(NC(=O)c2ccc(Cl)nc2N2CCCC(F)(F)CC2)ccn1 [Example 138, 6-chloro-2-(4,4-difluoroazepan-1-yl)-N-(2-sulfamoyl-4-pyridyl)pyridine-3-carboxamide] | 5.8 |
| C[C@@H]1CN(c2ncc(C(F)(F)F)cc2C(=O)Nc2ccnc(S(C)(=O)=O)c2)C[C@H](C)C1(F)F [Example 147, 2-((3S,5R)-4,4-difluoro-3,5-dimethylpiperidin-1-yl)-N-(2-(methylsulfonyl)pyridin-4-yl)-5-(trifluoromethyl)nicotinamide] | 22 |
| C[C@@H]1CN(c2ncc(C(F)(F)F)cc2C(=O)Nc2ccnc(C(N)=O)c2)C[C@H](C)C1(F)F [Example 156, 4-(2-((3S,5R)-4,4-difluoro-3,5-dimethylpiperidin-1-yl)-5 (trifluoromethyl)nicotinamido)picolinamide] | 58 |
| NS(=O)(=O)c1cc(NC(=O)c2cc(OC(F)(F)F)cnc2N2CCCC(F)(F)CC2)ccn1 [Example 177, 2-(4,4-difluoroazepan-1-yl)-N-(2-sulfamoylpyridin-4-yl)-5-(trifluoromethoxy)nicotinamide] | 2.8 |
| Cc1nc(N2CCCC(F)(F)CC2)c(C(=O)Nc2ccnc(S(N)(=O)=O)c2)cc1C(F)(F)F [Example 184, 2-(4,4-difluoroazepan-1-yl)-6-methyl-N-(2-sulfamoylpyridin-4-yl)-5-(trifluoromethyl)nicotinamide] | 0.5 |

Further molecules by falling IC50, results first:

| IC50 [nM] | Compound |
| --- | --- |
| 63 | C[C@H]1CN(c2nc(C3CCC3)c(Cl)cc2C(=O)Nc2ccnc(S(N)(=O)=O)c2)C[C@H](C(F)(F)F)O1 (single isomer, unassigned) [Example 161, 5-chloro-6-cyclobutyl-2-((2S,6R or 2R,6S)-2-methyl-6-(trifluoromethyl)morpholino)-N-(2-sulfamoylpyridin-4-yl)nicotinamide] |
| 58 | CC1CN(c2ncc(C(F)(F)F)cc2C(=O)Nc2ccnc(S(N)(=O)=O)c2)CCC(C(F)(F)F)O1 (single isomer, unassigned) [Example 121, 2-((2R,7S or 2S.7R)-2-methyl-7-(trifluoromethyl)-1,4-oxazepan-4-yl)-N-(2-sulfamoylpyridin-4-yl)-5-(trifluoromethyl)nicotinamide] |
| 52 | C[C@@H]1CN(c2nc(C3CCC3)ccc2C(=O)Nc2ccnc(S(N)(=O)=O)c2)C[C@@H](C(F)(F)F)O1 (single isomer, unassigned) [Example 167, 6-cyclobutyl-2-((2R,6S or 2S,6R)-2-methyl-6-(trifluoromethyl)morpholino)-N-(2-sulfamoylpyridin-4-yl)nicotinamide] |
| 17 | C[C@H]1CN(c2nc(C3CCC3)ccc2C(=O)Nc2ccnc(S(N)(=O)=O)c2)C[C@H](C(F)(F)F)O1 (single isomer, unassigned) [Example 168, 6-cyclobutyl-2-((2S,6R or 2R,6S)-2-methyl-6-(trifluoromethyl)morpholino)-N-(2-sulfamoylpyridin-4-yl)nicotinamide] |
| 13 | C[C@@H]1CN(c2nc(C3CCC3)ccc2C(=O)Nc2ccnc(S(N)(=O)=O)c2)C[C@H](C)C1(F)F [Example 166, 6-cyclobutyl-2-((3S,5R)-4,4-difluoro-3,5-dimethylpiperidin-1-yl)-N-(2-sulfamoylpyridin-4-yl)nicotinamide] |
| 9.2 | C[C@@H]1CN(c2nc(C3CCC3)c(Cl)cc2C(=O)Nc2ccnc(S(N)(=O)=O)c2)C[C@@H](C(F)(F)F)O1 (single isomer, unassigned) [Example 160, 5-chloro-6-cyclobutyl-2-((2R,6S or 2S,6R)-2-methyl-6-(trifluoromethyl)morpholino)-N-(2-sulfamoylpyridin-4-yl)nicotinamide] |
| 6.9 | C[C@@H]1CN(c2nc(C3CCC3)c(Cl)cc2C(=O)Nc2ccnc(S(N)(=O)=O)c2)C[C@H](C)C1(F)F [Example 169, 5-chloro-6-cyclobutyl-2-((3S,5R)-4,4-difluoro-3,5-dimethylpiperidin-1-yl)-N-(2-sulfamoylpyridin-4-yl)nicotinamide] |
| 6.5 | Cc1nc(N2CCC(F)(F)CC2)c(C(=O)Nc2ccnc(S(N)(=O)=O)c2)cc1C1CCC1 [Example 15, 5-cyclobutyl-2-(4,4-difluoropiperidin-1-yl)-6-methyl-N-(2-sulfamoylpyridin-4-yl)nicotinamide] |
| 4.5 | NS(=O)(=O)c1cc(NC(=O)c2cc(Cl)c(C3CC3)nc2N2CCCC(F)(F)CC2)ccn1 [Example 21, 5-chloro-6-cyclopropyl-2-(4,4-difluoroazepan-1-yl)-N-(2-sulfamoylpyridin-4-yl)nicotinamide] |
| 3 | NS(=O)(=O)c1cc(NC(=O)c2ccc(C3CC3)nc2N2CCCC(F)(F)CC2)ccn1 [Example 22, 6-cyclopropyl-2-(4,4-difluoroazepan-1-yl)-N-(2-sulfamoylpyridin-4-yl)nicotinamide] |
| 2.6 | NS(=O)(=O)c1cc(NC(=O)c2cc(Cl)c(C3CCC3)nc2N2CCCC(F)(F)CC2)ccn1 [Example 23, 5-chloro-6-cyclobutyl-2-(4,4-difluoroazepan-1-yl)-N-(2-sulfamoylpyridin-4-yl)nicotinamide] |
| 1.6 | Cc1cc(C(=O)Nc2ccnc(S(N)(=O)=O)c2)c(N2CCCC(F)(F)CC2)nc1C [Example 19, 2-(4,4-difluoroazepan-1-yl)-5,6-dimethyl-N-(2-sulfamoylpyridin-4-yl)nicotinamide] |
| 0.9 | NS(=O)(=O)c1cc(NC(=O)c2ccc(CC3CC3)nc2N2CCCC(F)(F)CC2)ccn1 [Example 18, 6-(cyclopropylmethyl)-2-(4,4-difluoroazepan-1-yl)-N-(2-sulfamoylpyridin-4-yl)nicotinamide] |
| 0.8 | Cc1nc(N2C[C@@H](C)C(F)(F)[C@@H](C)C2)c(C(=O)Nc2ccnc(S(N)(=O)=O)c2)cc1Cl [Example 53, 5-chloro-2-[(3S,5R)-4,4-difluoro-3,5-dimethyl-1-piperidyl]-6-methyl-N-(2-sulfamoyl-4-pyridyl)pyridine-3-carboxamide] |
| 0.3 | Cc1nc(N2CCCC(F)(F)CC2)c(C(=O)Nc2ccnc(S(N)(=O)=O)c2)cc1Cl [Example 172, 5-chloro-2-(4,4-difluoroazepan-1-yl)-6-methyl-N-(2-sulfamoylpyridin-4-yl)nicotinamide] |
